For this assay, the target named is T1, Dihydrolipoyl dehydrogenase (Mycobacterium tuberculosis (strain CDC 1551 / Oshkosh), UniProt P9WHH8).
T1 sequence (P9WHH8 whole entry): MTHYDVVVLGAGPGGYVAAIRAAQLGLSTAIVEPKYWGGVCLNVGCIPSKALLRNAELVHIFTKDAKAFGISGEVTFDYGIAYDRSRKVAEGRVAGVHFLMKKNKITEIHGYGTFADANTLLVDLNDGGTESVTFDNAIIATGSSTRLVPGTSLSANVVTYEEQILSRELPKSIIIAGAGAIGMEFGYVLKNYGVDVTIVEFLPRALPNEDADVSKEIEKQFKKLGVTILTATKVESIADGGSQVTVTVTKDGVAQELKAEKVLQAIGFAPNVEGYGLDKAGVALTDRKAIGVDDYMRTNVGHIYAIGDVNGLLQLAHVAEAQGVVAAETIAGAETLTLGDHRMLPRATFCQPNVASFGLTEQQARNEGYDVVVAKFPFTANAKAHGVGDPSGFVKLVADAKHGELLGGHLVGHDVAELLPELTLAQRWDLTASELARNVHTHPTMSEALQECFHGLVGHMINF
The experiment in a line: Enzymatic Assay.

A word on the IC50: it is the concentration that inhibits the measured activity by half. A high value points to lower potency.

Molecules are shown by their SMILES.

Take `COc1cccc(C(=O)N2CCC3(CC2)C(=O)N(CC(=O)NCCc2ccc(C(F)(F)F)cc2)CN3c2ccccc2)c1` [Triazaspirobenzyl, 8]: the IC50 was more than 100000 nM.
To `COc1ccc(C(=O)N2CCC3(CC2)C(=O)N(CC(=O)NCCc2ccc(C(F)(F)F)cc2)CN3c2ccccc2)c(OC)c1` [Triazaspirobenzyl, 4] belongs 2000 nM.

The values are drawn from BindingDB's records for doi:10.1021/bi9016186 (Weill Cornell Medical College, 2010).
